Assays:
[1] = tested on: Pediococcus pentosaceus FBB63C; assay: MIC and MBC by two-fold broth dilution; type: cell-based; settings: APT broth, 24 hours at 32° C.
Listeria monocytogenes [2] = assay: Activity of PA-1 against Listeria monocytogenes in cheese sauce; type: cell-based; settings: cheese sauce pH 5.25, 4° C., LM 5.3 × 10^3 cells per gram
Method: Listeria monocytogenes was added to the cheese sauce (pH 5.25) at a rate of 5.3×10^3 cfu/g of cheese sauce. The bacteriocin powder PA-1 was added to the cheese sauce at a rate of 10 or 50 U/g of sauce. The samples were mixed and incubated at 4° C. and aliquots were removed and examined for growth of Listeria monocytogenes.

Listeria monocytogenes [3] = assay: Effect of PA-1 powder on an exponential culture (turbidity at 660 nm); type: cell-based; settings: 200 U/ml and 500 U/ml added after 3.75 hours, APT broth, 32° C.
Method: The PA-1 powder was added to a L. monocytogenes culture at 200 U(units)/ml or 500 U/ml and turbidity (which is an indicator of the number of cells) was monitored over time at 660 nanometers. The symbols used are , control (no PA-1 added); .circle., 200 U/ml PA-1; .quadrature., 500 U/ml PA-1.
Sterile PA-1 bacteriocin powder was added to an exponential culture of Listeria monocytogenes at a rate of 200 U/ml of broth and 500 U/ml of broth. Listeria monocytogenes was grown in APT broth at 32° C. Absorbance was followed over time at 660 nm.

[4] = cited from earlier work
Listeria monocytogenes [5] = assay: Activity of PA-1 against Listeria monocytogenes in dressed Cottage cheese; type: cell-based
Method: Listeria monocytogenes was added to dressed Cottage cheese (pH 5.1) at a rate of 6.5×10^3 cfu/gram of dressed Cottage cheese. The bacteriocin powder to Example 1 (PA-1) was added to the Cottage cheese at a rate of 10 or 50 U (units)/g dressed Cottage cheese. The samples were mixed and incubated at 4° C. and aliquots were removed and plated onto McBride's Agar (Difco, Detroit, Mich.) and incubated at 32° C. and examined for growth of Listeria monocytogenes.

Listeria monocytogenes [6] = assay: Activity of PA-1 against Listeria monocytogenes in half and half cream; type: cell-based; settings: half and half cream pH 6.7, 4° C., LM 4.3 × 10^3 cells per ml, PA-1 50 U/ml
Method: Listeria monocytogenes was added to the cream (pH 6.7) at a rate of 4.3×10^3 cfu/ml of cream. The bacteriocin powder PA-1 was added to the cream at a rate of 10 or 50 U/ml cream. The samples were mixed and incubated at 4° C. and aliquots were removed and examined for growth of Listeria monocytogenes .

[7] = tested on: Lactococcus, Streptococcus, Staphylococcus, Micrococcus and Lactobacillus strains; settings: Lactococcus lactis, L. lactis subsp. diacetylactis, L. cremoris, Streptococcus thermophilus, Staphylococcus aureus, xylosus, epidermidis, carnosus, Micrococcus varians, sodonensis, Lactobacillus acidophilus, bulgaricus; cited from earlier work
[8] = tested on: Listeria monocytogenes LM01; assay: MIC and MBC by two-fold broth dilution; type: cell-based; settings: APT broth, 24 hours at 32° C.
Method: Bacteriocin PA-1 powder was dissolved in APT broth and two-fold serially diluted to concentrations ranging from 1000 U/ml to 2.0 U/ml. Approximately 1×10^3 Listeria monocytogenes/ml were added to each of the tubes which then were incubated for 24 hours at 32° C. The MIC value was the lowest concentration tube displaying no visible turbidity.

PA-1: bacteriocin of about 16,500 daltons produced by Pediococcus acidilactici NRRL-B-18050 (PAC 1.0); tested as lyophilized culture supernatant powder with nonfat dry milk
MBC ([1]; no CFU on APT agar): 31.3 U/ml
MIC ([1]; no visible turbidity): 7.8 U/ml
Growth of Listeria at 24 h (Listeria monocytogenes [2]; PA-1 10 U/g): 4.0 × 10^2 cfu/g
Growth of Listeria at 24 h (Listeria monocytogenes [2]; PA-1 50 U/g): 0 cfu/g
Effect on exponential culture, absorbance at 660 nm (Listeria monocytogenes [3]): not only inhibitory but also bacteriocidal
Effect of heating on the bacteriocin ([4]; heating to 100° C. in water): unaffected
Effect of proteolytic enzymes on the bacteriocin ([4]; in vitro mixing with protease, papain or alpha-chymotrypsin): inactivated
Effect of other enzymes on the bacteriocin ([4]; phospholipase C, lysozyme, Dnase and RNase): unaffected
Growth of Listeria at 24 h (Listeria monocytogenes [5]; dressed Cottage cheese pH 5.1, 4° C., LM 6.5 × 10^3 cells per gram, PA-1 10 U/g): 0 cfu/g
Growth of Listeria at 24 h (Listeria monocytogenes [5]; dressed Cottage cheese pH 5.1, 4° C., LM 6.5 × 10^3 cells per gram, PA-1 50 U/g): 0 cfu/g
Growth of Listeria at 24 h (Listeria monocytogenes [5]; dressed Cottage cheese, 4° C., no LM added, PA-1 50 U/g): 0 cfu/g
Growth of Listeria at 24 h (Listeria monocytogenes [6]): 0 cfu/g
Inhibitory activity against other gram positive bacteria [7]: No activity was found
MBC ([8]; no CFU on APT agar): 7.8 U/ml
MIC ([8]; about 1×10^3 cells/ml, no visible turbidity): < 2.0 U/ml
